Reference: ChEMBL document CHEMBL4725291, “Design, synthesis and biological evaluation of novel glyoxalase I inhibitors possessing diazenylbenzenesulfonamide moiety as potential anticancer agents” (Bioorg Med Chem, 2020)

What was measured:
Lactoylglutathione lyase [1] = molecular target: T1, Lactoylglutathione lyase (Homo sapiens, UniProt Q04760); assay: Inhibition of recombinant human N-terminal Met and 6-His-tagged Glyoxalase-1 (Ala2 to Met184 residues) at 25 uM using glutathione and methylglyoxal as substrates preincubated for 15 mins followed by enzyme addition by double beam UV-vis spectrophotometric method relative to control
Target sequence in this assay (Q04760 2-184 limits assumed): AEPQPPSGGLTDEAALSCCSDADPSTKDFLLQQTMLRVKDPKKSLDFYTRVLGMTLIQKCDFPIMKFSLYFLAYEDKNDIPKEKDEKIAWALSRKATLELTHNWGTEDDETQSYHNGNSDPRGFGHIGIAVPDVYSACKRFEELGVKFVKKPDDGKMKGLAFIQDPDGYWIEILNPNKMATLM

Lactoylglutathione lyase [2] = molecular target: T1, Lactoylglutathione lyase; assay: Inhibition of recombinant human N-terminal Met and 6-His-tagged Glyoxalase-1 (Ala2 to Met184 residues) using glutathione and methylglyoxal as substrates preincubated for 15 mins followed by enzyme addition by double beam UV-vis spectrophotometric method
Target sequence in this assay (Q04760 whole entry): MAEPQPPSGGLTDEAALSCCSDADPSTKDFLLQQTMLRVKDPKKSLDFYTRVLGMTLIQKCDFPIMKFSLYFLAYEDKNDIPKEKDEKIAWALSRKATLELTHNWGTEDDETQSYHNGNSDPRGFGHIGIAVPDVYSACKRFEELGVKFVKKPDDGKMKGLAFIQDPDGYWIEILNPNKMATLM

| SMILES | inhibition (Lactoylglutathione lyase [1]) [%] | IC50 (Lactoylglutathione lyase [2]) [µM] |
| --- | --- | --- |
| Cc1ccc(/N=N/c2ccc(N)c3ccccc23)cc1S(N)(=O)=O | 24.7 | 95.7 |
| Nc1ccc(/N=N/c2cccc(S(N)(=O)=O)c2)c2ccc(O)cc12 | 66 | 21.8 |
| NS(=O)(=O)c1cccc(/N=N/c2cc3ccc(=O)oc3cc2O)c1 | 64.4 | 18.9 |
| NS(=O)(=O)c1cccc(/N=N/c2ccc(O)c3ncccc23)c1 | 98.3 | 1.36 |
| Oc1ccc(/N=N/c2ccccc2)c2cccnc12 | 82.8 | 9.13 |
| Cc1ccc(/N=N/c2cc3ccccc3c(C=O)c2O)cc1S(N)(=O)=O | 57.4 | 18.6 |
| O=S(=O)(O)c1ccc(/N=N/c2ccc(O)c3ncccc23)cc1 | 75 | 9.7 |
| Nc1ccc(/N=N/c2cccc(S(N)(=O)=O)c2)c2ccccc12 | 28.1 | 85.8 |
| Cc1ccc(/N=N/c2c(O)ccc3ccccc23)cc1S(N)(=O)=O | 34.5 | 45 |
| O=C(O)c1ccc(/N=N/c2ccc(O)c3ncccc23)cc1 | 79.9 | 4.45 |
| NS(=O)(=O)c1cccc(/N=N/c2ccc(O)cc2)c1 | 59.9 | 13.4 |

Next, values leading:

| inhibition (Lactoylglutathione lyase [1]) [%] | IC50 (Lactoylglutathione lyase [2]) [µM] | SMILES |
| --- | --- | --- |
| 96.5 | 1.22 | NS(=O)(=O)c1cccc(/N=N/c2cc(C(=O)O)c(O)c3ccccc23)c1 |
| – | > 100 | Cc1ccc(/N=N/c2ccc(N)c3cccc(O)c23)cc1S(N)(=O)=O |
| 76.5 | 8.66 | NS(=O)(=O)c1cccc(/N=N/c2ccc(O)c(C(=O)O)c2)c1 |
| – | > 100 | Cc1ccc(/N=N/c2cc3ccccc3c(C(=O)O)c2O)cc1S(N)(=O)=O |
| 57.2 | 18.9 | Cc1ccc(/N=N/c2ccc(N)c3cc(O)ccc23)cc1S(N)(=O)=O |
| 59 | 17.8 | Cc1ccc(/N=N/c2cc3ccc(=O)oc3cc2O)cc1S(N)(=O)=O |
| 76.4 | – | Cc1ccc(/N=N/c2ccc(N)c3ccc(O)cc23)cc1S(N)(=O)=O |
| 92.1 | 1.28 | Cc1ccc(/N=N/c2ccc(O)c3ncccc23)cc1S(N)(=O)=O |
| 100 | 1.13 | Cc1ccc(/N=N/c2cc(C(=O)O)c(O)c3ccccc23)cc1S(N)(=O)=O |
| 54 | 24 | Cc1ccc(/N=N/c2c(O)ccc3cccc(N)c23)cc1S(N)(=O)=O |
| 39 | 37.5 | NS(=O)(=O)c1cccc(/N=N/c2c(O)ccc3ccccc23)c1 |
| 90.7 | 4.37 | O=C(O)c1cccc(/N=N/c2ccc(O)c3ncccc23)c1 |
| 38.3 | 52.2 | NS(=O)(=O)c1cccc(/N=N/c2ccc(O)c3ccccc23)c1 |
| 67.7 | 11.5 | Cc1ccc(/N=N/c2ccc(O)c(C(=O)O)c2)cc1S(N)(=O)=O |
